Data as given in US20080248511A1, “METHODS TO QUENCH LIGHT FROM OPTICAL REACTIONS” (priority 2007, published 2008).
Read-outs that look alike come from different tables or passages of the source.

Columns and labels:
Renilla luciferase [1] = biological target: T1, Renilla luciferase (Renilla reniformis, UniProt P27652); assay: Quaternary ammonium/phosphonium detergent screen, Renilla luciferase (Example 5); format: biochemical; details: final conc. 0.10% detergent
T1 sequence (P27652 1-311): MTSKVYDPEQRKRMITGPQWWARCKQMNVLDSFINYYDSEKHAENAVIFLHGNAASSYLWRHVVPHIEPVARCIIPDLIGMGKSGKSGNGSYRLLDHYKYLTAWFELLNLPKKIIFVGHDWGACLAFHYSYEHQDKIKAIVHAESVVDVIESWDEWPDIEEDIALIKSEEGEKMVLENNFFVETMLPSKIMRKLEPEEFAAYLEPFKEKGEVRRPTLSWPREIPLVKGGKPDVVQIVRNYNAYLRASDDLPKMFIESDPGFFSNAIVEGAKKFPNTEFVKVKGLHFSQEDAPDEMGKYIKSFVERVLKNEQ
Experimental: (§1) Each detergent was added at 0.2% to a reagent solution containing 50 mM Tricine pH 8.3, 3.5 mM MgSO4, 1 mM CDTA, 30 mM thiourea and 0.5% Tergitol NP-9. This solution or one not containing a detergent inhibitor was used to resuspend the Bright-Glo™ luciferin substrate (Promega).
(§2) The luciferase reactions were initiated by adding 100 μl of the firefly luciferase or Renilla luciferase enzyme solutions to 100 μl of reagent solution. The reactions were performed as described above. […] The detergent concentrations listed refer to the final concentration in the reaction.

Renilla luciferase [2] = biological target: T1, Renilla luciferase; assay: Detergent screen with Tergitol NP-9, Renilla luciferase (Example 3); format: biochemical
Experimental: (§3) Unless otherwise specified, materials were obtained from Sigma-Aldrich.
(§4) The firefly luciferase and Renilla luciferase enzymes were diluted as follows. Firefly luciferase was diluted to 14 ng/ml in Delbecco's Minimal Essential (DMEM) medium (Gibco/Invitrogen) containing 0.1% Prionex®. Renilla luciferase was diluted to 10 ng/ml in DMEM medium containing 0.1% Prionex®.
(§5) The luciferase reactions were initiated by adding 50 μl of the firefly luciferase or Renilla luciferase enzyme solution to 50 μl of reagent solution. The reactions were performed as described above. The retained firefly luciferase and Renilla luciferase luminescence as well as the selectivity values for each quencher were calculated (Table 3). The values listed are based on 0.06% quencher in the reagent solution.

Renilla luciferase [3] = biological target: T1, Renilla luciferase; assay: biochemical; format: biochemical
Renilla luciferase [4] = biological target: T1, Renilla luciferase; assay: Quaternary ammonium/phosphonium detergent screen, Renilla luciferase (Example 5); format: biochemical; details: final conc. 0.03% detergent
firefly luciferase [5] = biological target: T2, firefly luciferase (Photinus pyralis, UniProt P08659); assay: Quaternary ammonium/phosphonium detergent screen, firefly luciferase (Example 5); format: biochemical; details: final conc. 0.03% detergent; Tergitol NP-9 present; read-out: Retained Firefly Luciferase Luminescence (%)
firefly luciferase [6] = biological target: T2, firefly luciferase; assay: Detergent titration with Tergitol NP-9, digitonin or no lysing agent, firefly luciferase (Example 4); format: biochemical; details: read-out: Relative Firefly Luc Intensity; for remaining activity at 0.0005 %: 0.0005% detergent; for remaining activity at 0.005 %: 0.0050% detergent; for remaining activity at 0.05 %: 0.0500% detergent
Experimental: For measurement of firefly luciferase-mediated luminescence, a solution containing 110 mM HEPES pH 7.5, 8 mM MgSO4, 0.05% gelatin, 7.35 ng/ml firefly luciferase (QuantiLum® Luciferase; Promega) and the content of the Steady-Glo Luciferase Substrate (Promega) at the equivalent of 1×, As in the Renilla luciferase reactions, reactions contained either no lysing agent, 0.5% Tergitol NP-9 or 20 μg/ml digitonin. The same detergents were titrated as described above and firefly luciferase-mediated luminescence was measured.

firefly luciferase [7] = biological target: T2, firefly luciferase; assay: Quaternary ammonium/phosphonium detergent screen, firefly luciferase (Example 5); format: biochemical; details: final conc. 0.10% detergent; Tergitol NP-9 present; read-out: Retained Firefly Luciferase Luminescence (%)
Experimental: as §1, §2

firefly luciferase [8] = biological target: T2, firefly luciferase; assay: biochemical; details: 0.5% detergent in Luciferase Assay Reagent; read-out: Retained Firefly Luciferase Luminescence (%)
Experimental: The retained luminescence for each luciferase was calculated by dividing the luminescence in the presence of the detergent by the luminescence in the absence of the test detergent. The selectivity value for each of the test detergents was determined by dividing the retained firefly luciferase luminescence by the retained Renilla luciferase luminescence.
A set of detergents (Table 2; Sigma-Aldrich) was added at 0.5% (from a 5% or 10% stock solution) to either Luciferase Assay Reagent (Promega) or Renilla Luciferase Assay Reagent (Promega) and allowed to equilibrate at room temperature.
The firefly luciferase and Renilla luciferase enzymes were diluted as follows. Firefly luciferase was diluted to 14 ng/ml in Phosphate Buffered Saline (PBS) containing 0.1% of the protein carrier Prionex® (Pentapharm). Renilla luciferase was diluted to 10 ng/ml in 1× Renilla Luciferase Lysis Buffer (Promega) containing 0.1% Prionex®. The Renilla Luciferase Lysis Buffer […] detergent micelles when using the Renilla Luciferase Assay Reagent. In the absence of other detergents, this prevents sequestering of coelenterazine which inhibits Renilla luciferase-mediated luminescence.
The luciferase reactions were initiated by adding 40 μl of either the firefly or Renilla luciferase enzyme solution to 200 μl of the appropriate reagent solution (firefly luciferase enzyme solution+firefly luciferase reagent solution or Renilla luciferase enzyme solution+Renilla luciferase reagent solution, respectively). The reactions were performed in an opaque white, 96-well plate and luminescence was measured for 0.5 seconds per well using a Turner BioSystems Veritas™ Microplate luminometer. The retained firefly luciferase and Renilla luciferase luminescence, as well as the selectivity values for each detergent, were calculated (Table 2).

firefly luciferase [9] = biological target: T2, firefly luciferase; assay: Detergent screen with Tergitol NP-9, firefly luciferase (Example 3); format: biochemical; details: 0.06% quencher in reagent solution; 0.5% Tergitol NP-9
Experimental: as §3, §4, §5

[10] = Tergitol NP-9 present, read-out: Retained Renilla Luciferase Luminescence (%)

T2 sequence (P08659 whole entry): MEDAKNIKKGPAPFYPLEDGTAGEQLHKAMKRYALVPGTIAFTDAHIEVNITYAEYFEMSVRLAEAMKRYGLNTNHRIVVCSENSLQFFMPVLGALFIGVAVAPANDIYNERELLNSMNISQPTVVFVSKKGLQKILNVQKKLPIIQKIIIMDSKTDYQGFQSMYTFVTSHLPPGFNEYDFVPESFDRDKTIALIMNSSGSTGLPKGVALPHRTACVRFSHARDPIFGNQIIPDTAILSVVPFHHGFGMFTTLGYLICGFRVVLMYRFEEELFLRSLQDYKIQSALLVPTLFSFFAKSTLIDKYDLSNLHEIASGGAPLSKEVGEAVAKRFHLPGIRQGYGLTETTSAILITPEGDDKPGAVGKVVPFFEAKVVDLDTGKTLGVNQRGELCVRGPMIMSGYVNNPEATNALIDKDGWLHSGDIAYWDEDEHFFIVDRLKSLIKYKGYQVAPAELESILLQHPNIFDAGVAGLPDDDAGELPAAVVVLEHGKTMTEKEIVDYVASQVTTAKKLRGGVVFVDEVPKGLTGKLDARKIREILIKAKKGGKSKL

`CCCCCCCCCCCC[N+](C)(C)Cc1ccccc1.[Br-]` [Benzyldimethyldodecylammonium bromide] was tested. Which “Selectivity Value” (Renilla luciferase [1]) did it give?
The value was 48.5.

And the remaining activity at 0.1 % (Renilla luciferase [1]; [10])?
The remaining activity at 0.1 % was 2%.

And the “Retained Renilla Luminescence (%)” value (Renilla luciferase [2]; 0.06% quencher in reagent solution, 0.5% Tergitol NP-9)?
The value was 22%.

And the “lowering of selectivity value relative to the screen without Tergitol NP-9” value (Renilla luciferase [2]; Tergitol NP-9 in the reagent solution)?
The value was “about 50 fold”.

What about the “Selectivity Value” (Renilla luciferase [2]; retained firefly / retained Renilla, 0.06% quencher, 0.5% Tergitol NP-9) of the same molecule?
Its value is 5.4.

What about the remaining activity at 0.5 % (Renilla luciferase [3]; 0.5% detergent in Renilla Luciferase Assay Reagent, read-out: Retained Renilla Luciferase Luminescence (%)) of the same molecule?
The remaining activity at 0.5 % was 0.08%.

What about the “Selectivity Value” (Renilla luciferase [3]; retained firefly / retained Renilla, 0.5% detergent) of the same molecule?
Its value is 259.9.

What about the “Selectivity Value” (Renilla luciferase [4]) of the same molecule?
The value was 4.

And the remaining activity at 0.03 % (Renilla luciferase [4]; [10])?
The remaining activity at 0.03 % was 25%.

What about the remaining activity at 0.03 % (firefly luciferase [5]) of the same molecule?
Its remaining activity at 0.03 % is 100%.

What about the remaining activity at 0.0005 % (firefly luciferase [6]; Dig) of the same molecule?
The remaining activity at 0.0005 % was 111%.

What about the remaining activity at 0.0005 % (firefly luciferase [6]; Terg) of the same molecule?
Its remaining activity at 0.0005 % is 96%.

And the remaining activity at 0.0005 % (firefly luciferase [6]; Water)?
The remaining activity at 0.0005 % was 116%.

And the remaining activity at 0.005 % (firefly luciferase [6]; Dig)?
The remaining activity at 0.005 % was 139%.

What about the remaining activity at 0.005 % (firefly luciferase [6]; Terg) of the same molecule?
Its remaining activity at 0.005 % is 101%.

What about the remaining activity at 0.005 % (firefly luciferase [6]; Water) of the same molecule?
Its remaining activity at 0.005 % is 155%.

What about the remaining activity at 0.05 % (firefly luciferase [6]; Dig (20 μg/ml digitonin)) of the same molecule?
Its remaining activity at 0.05 % is 37%.

And the remaining activity at 0.05 % (firefly luciferase [6]; Terg (0.5% Tergitol NP-9))?
Its remaining activity at 0.05 % is 50%.

And the remaining activity at 0.05 % (firefly luciferase [6]; Water (no lysing agent))?
Its remaining activity at 0.05 % is 79%.

What about the remaining activity at 0.1 % (firefly luciferase [7]) of the same molecule?
The remaining activity at 0.1 % was 97%.

And the remaining activity at 0.5 % (firefly luciferase [8])?
The remaining activity at 0.5 % was 20.7%.

What about the “Retained Firefly Luminescence (%)” value (firefly luciferase [9]) of the same molecule?
The value was 119%.
